15 molecules from PMC9929631 (The EMBO Journal, 2023) can be followed below.

The subject of test [1] is DDB1‐DCAF12, DCAF12 Lys108Ala mutant. It counts as binding, human. Particulars: TR-FRET titration, n = 3. (In general: TR-FRET usually uses a lanthanide donor and a delayed reading to cut background.)
For test [2], the system named is DDB1‐DCAF12, DCAF12 His144Ala mutant. It counts as binding, human. The conditions noted are these: TR-FRET titration, n = 3.
For test [3], the system named is DDB1‐DCAF12, DCAF12 Arg203Ala mutant. In kind it is binding, human. Particulars: TR-FRET titration, n = 3.
In test [4] the test system is DDB1‐DCAF12, DCAF12 Arg256Ala mutant. In kind it is binding, human. The conditions noted are these: TR-FRET titration, n = 3.
In test [5] the test system is DDB1‐DCAF12, DCAF12 Arg344Ala mutant. In kind it is binding, human. Particulars: TR-FRET titration, n = 3.
Test [6] has as its target T1, DDB1‐DCAF12 (Homo sapiens, UniProt Q16531+Q5T6F0). Put plainly: TR-FRET competition assay. In kind it is binding.
Test [7] has as its target T1, DDB1‐DCAF12. The experiment in a line: In vitro pull-downs with strep. It counts as binding. The conditions noted are these: strep(II)-tagged DDB1-DCAF12, untagged CCT5; Coomassie-stained SDS–PAGE.
The target of test [8] is biotinylated strep(II)-avi-DDB1-strep(II)-DCAF12 complex (wild type) (homo sapiens) (UniProt Q16531). Put plainly: FRET or BRET. For orientation: BRET reads energy transfer from a luciferase to a nearby fluorophore.
Chain of biotinylated strep(II)-avi-DDB1-strep(II)-DCAF12 complex (wild type) (homo sapiens) (Q16531 whole entry, chain 1 of 2): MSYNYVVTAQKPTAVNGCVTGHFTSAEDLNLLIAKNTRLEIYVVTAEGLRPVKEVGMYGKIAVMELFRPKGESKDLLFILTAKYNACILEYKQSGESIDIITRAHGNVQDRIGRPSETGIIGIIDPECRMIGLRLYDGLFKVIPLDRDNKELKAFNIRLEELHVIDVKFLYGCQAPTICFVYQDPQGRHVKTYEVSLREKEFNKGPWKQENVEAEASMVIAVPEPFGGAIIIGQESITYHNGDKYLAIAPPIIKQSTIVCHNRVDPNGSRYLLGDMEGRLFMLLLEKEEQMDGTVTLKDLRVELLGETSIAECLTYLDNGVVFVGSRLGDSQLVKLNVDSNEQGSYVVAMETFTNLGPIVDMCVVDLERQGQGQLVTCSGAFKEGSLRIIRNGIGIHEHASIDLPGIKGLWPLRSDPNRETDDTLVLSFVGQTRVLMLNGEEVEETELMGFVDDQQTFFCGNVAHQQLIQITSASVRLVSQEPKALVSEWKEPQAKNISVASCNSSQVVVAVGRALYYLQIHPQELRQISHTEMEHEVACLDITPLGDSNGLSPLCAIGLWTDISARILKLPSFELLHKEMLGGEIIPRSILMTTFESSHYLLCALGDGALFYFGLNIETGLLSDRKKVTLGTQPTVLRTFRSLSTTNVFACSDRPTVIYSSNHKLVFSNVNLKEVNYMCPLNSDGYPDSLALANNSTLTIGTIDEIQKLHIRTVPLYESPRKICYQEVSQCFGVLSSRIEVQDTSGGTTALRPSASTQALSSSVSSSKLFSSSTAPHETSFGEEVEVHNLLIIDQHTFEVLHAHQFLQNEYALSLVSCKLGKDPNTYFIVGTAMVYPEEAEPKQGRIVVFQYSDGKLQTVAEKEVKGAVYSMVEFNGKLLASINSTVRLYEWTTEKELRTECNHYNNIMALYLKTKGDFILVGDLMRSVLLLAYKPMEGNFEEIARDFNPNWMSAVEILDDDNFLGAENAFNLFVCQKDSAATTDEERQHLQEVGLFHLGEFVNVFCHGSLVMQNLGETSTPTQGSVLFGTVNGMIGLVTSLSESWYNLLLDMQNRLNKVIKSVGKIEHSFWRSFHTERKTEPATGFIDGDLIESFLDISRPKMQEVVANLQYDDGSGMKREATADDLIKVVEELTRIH
Chain of biotinylated strep(II)-avi-DDB1-strep(II)-DCAF12 complex (wild type) (homo sapiens) (Q5T6F0 whole entry, chain 2 of 2, further chain): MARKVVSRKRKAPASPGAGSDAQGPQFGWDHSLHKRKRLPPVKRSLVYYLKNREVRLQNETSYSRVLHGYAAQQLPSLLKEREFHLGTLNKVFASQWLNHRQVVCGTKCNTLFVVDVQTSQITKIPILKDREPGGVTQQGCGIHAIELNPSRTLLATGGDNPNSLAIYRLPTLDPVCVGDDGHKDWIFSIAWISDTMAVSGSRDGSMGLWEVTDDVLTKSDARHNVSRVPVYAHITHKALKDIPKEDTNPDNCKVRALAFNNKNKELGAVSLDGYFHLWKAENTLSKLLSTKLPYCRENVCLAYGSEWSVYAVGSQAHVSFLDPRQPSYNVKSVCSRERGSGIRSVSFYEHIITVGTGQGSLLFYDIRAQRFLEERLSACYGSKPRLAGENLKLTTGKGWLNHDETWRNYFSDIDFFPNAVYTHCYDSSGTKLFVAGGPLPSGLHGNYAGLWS

Entries after “also recorded” stand apart in the source; their conditions may differ. Like-named read-outs stand apart in the source and are kept apart here. Numbered stars: 1 amine (or outer) side, 2 acyl side, 3 side chain; on linkers, the order of the positions; unused ones are H or OH. Square brackets hold non-standard residues; d marks the D form. Ends that are not written are not given here. Peptide text beside a SMILES is read from it. * marks the point of attachment. X1 = N=c1ccc2c(-c3ccccc3C(=O)*)c3ccc(N)c(S(=O)(=O)O)c3oc-2c1S(=O)(=O)O; NMeGABA = CN(CCCC(=O)[*:2])[*:1]

T1 sequence (Q5T6F0 whole entry): as the sequence (Q5T6F0 whole entry, chain 2 of 2, further chain) above
T1 sequence (Q16531 whole entry partner): as the sequence (Q16531 whole entry, chain 1 of 2) above
Chain of CCT5_(10) peptide Glu532Ala (P48643 whole entry, looked up, change not shown, tested part not stated): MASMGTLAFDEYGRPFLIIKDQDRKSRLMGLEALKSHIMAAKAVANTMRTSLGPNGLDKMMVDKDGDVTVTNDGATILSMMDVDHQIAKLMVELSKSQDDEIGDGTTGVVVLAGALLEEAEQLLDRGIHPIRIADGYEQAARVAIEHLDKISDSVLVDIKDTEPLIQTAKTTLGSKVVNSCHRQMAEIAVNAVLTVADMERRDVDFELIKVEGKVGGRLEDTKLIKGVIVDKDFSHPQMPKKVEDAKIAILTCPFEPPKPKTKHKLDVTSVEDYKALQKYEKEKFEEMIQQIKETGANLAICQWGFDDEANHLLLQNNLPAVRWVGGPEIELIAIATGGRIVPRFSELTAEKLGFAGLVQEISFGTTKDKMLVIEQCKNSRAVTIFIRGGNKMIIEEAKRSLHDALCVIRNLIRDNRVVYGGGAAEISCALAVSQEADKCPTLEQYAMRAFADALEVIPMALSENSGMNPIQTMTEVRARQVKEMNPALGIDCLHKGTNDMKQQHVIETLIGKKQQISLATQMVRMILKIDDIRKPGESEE

`CC[C@H](C)[C@H](NC(=O)[C@H](CCSC)NC(=O)[C@H](CCCNC(=N)N)NC(=O)[C@@H](NC(=O)[C@H](CCSC)NC(=O)[C@H](CCC(N)=O)NC(=O)CCCN(C)C(=O)c1ccccc1-c1c2ccc(=N)c(S(=O)(=O)O)c-2oc2c(S(=O)(=O)O)c(N)ccc12)C(C)C)C(=O)N[C@@H](CC(C)C)C(=O)N[C@@H](CCCCN)C(=O)N[C@H](C(=O)N[C@@H](CC(=O)O)C(=O)N[C@@H](CC(=O)O)C(=O)N[C@H](C(=O)N[C@@H](CCCNC(=N)N)C(=O)N[C@@H](CCCCN)C(=O)N1CCC[C@H]1C(=O)NCC(=O)N[C@@H](CCC(=O)O)C(=O)N[C@@H](CO)C(=O)N[C@@H](CCC(=O)O)C(=O)N[C@@H](CCC(=O)O)C(=O)O)[C@@H](C)CC)[C@@H](C)CC` [^488CCT5_20] (X1-[NMeGABA]QMVRMILKIDDIRKPGESEE-OH; C-terminus assumed): in test [1], the “binding to DCAF12 Lys108Ala mutant (in words)” value is recorded as “failed to bind”. The “binding to DCAF12 His144Ala mutant (in words)” value in test [2] was “failed to bind”. For the same molecule, the “binding to DCAF12 Arg203Ala mutant (in words)” value in test [3] was “abrogated substrate binding”. For the same molecule, the “binding to DCAF12 Arg256Ala mutant (in words)” value in test [4] is “abolished; also recorded: failed to bind”. For the same molecule, the “binding to DCAF12 Arg344Ala mutant (in words)” value in test [5] is on record as “failed to bind”.

Usually IC50 stands for the point on the concentration scale where inhibition reaches its midpoint. The low end stands for inhibition by little substance, the high end for a need for much substance. As for AIRKPGESEE [CCT510 D532A], the IC50 in test [6] worked out at 222 ± 25 nM.

On to “CCT5 (1–529): CCT5 mutant without the 12 C‐terminal residues”, for which, in test [7], the “binding to DDB1-DCAF12 in pull-down (in words)” value is recorded as “did not bind”. Still for that read-out and setting: the value for “CCT5: purified recombinant full‐length human CCT5, a subunit of the TRiC chaperonin, monomeric” was “efficiently bound”.

As to “CCT5_(10) peptide Glu532Ala (from UniProt P48643 532-541)”, the IC50 in test [8] was determined as 222 nM. In test [6], DARKPGESEE [CCT510 I533A] showed an IC50 of 209 ± 25 nM. For the molecule DIAKPGESEE [CCT510 R534A], the IC50 in test [6] came to 395 ± 68 nM.

DIRAPGESEE [CCT510 K535A] came in with an IC50 in test [6] of 208 ± 26 nM. The molecule DIRKAGESEE [CCT510 P536A] came in with an IC50 in test [6] of 417 ± 53 nM.

In test [6], DIRKPGASEE [CCT510 E538A] showed a concentration for half-maximal inhibition (IC50) of 571 ± 103 nM. Regarding DIRKPGEAEE [CCT510 S539A], the IC50 in test [6] was 125 ± 15 nM. As to DIRKPGESAE [CCT510 E540A], in test [6] (IC50, TR-FRET competition against TbDDB1-DCAF12^488, n = 3), the IC50 is > 50000 nM. In test [6], DIRKPGESEE [CCT5_10] gave an IC50 of 363 ± 78 nM. Still for that read-out and setting: the result for EGWRLFKIDKEYLLKMATEE [SAT1_20] reads 291 ± 38 nM. With “TRiC: recombinant ~ 1 MDa human TRiC chaperonin complex of eight co‐expressed subunits”, the IC50 in test [6] (TR-FRET competition against TbDDB1-DCAF12^488, n = 3) was > 10000 nM.
